According to the NIST ThermoML archive (doi:10.1016/j.jct.2007.08.005):
± gives the expanded uncertainty stated by the source.

Assay: xn = mol fraction of the nth substance listed
Conditions: 308.15 K, 101 kPa, Liquid; for excess molar volume: Direct dilatometry; for speed of sound: Sing-around technique in a fixed-path interferometer

O=C1CCCN1 [2-pyrrolidinone] + OCCO
Conditions	excess molar volume [m3/mol]	speed of sound [m/s]	viscosity [mPa·s]
x2 = 0.0118	4e-09 ± 5e-09	–	–
x2 = 0.0271	1.1e-08 ± 5e-09	–	–
x2 = 0.0351	–	1600.6 ± 1.4	8.955 ± 0.17
x2 = 0.0551	2.1e-08 ± 5e-09	–	–
x2 = 0.0613	–	1601.1 ± 1.3	9.037 ± 0.18
x2 = 0.0711	2.4e-08 ± 5e-09	–	–
x2 = 0.0816	–	1601.4 ± 1.3	9.118 ± 0.18
x2 = 0.0891	3.3e-08 ± 5e-09	–	–
x2 = 0.1123	3.6e-08 ± 5e-09	–	–
x2 = 0.1155	–	1601.9 ± 1.3	9.255 ± 0.18
x2 = 0.1356	4.4e-08 ± 5e-09	–	–
x2 = 0.1467	5e-08 ± 5e-09	–	–
x2 = 0.1641	–	1602.4 ± 1.3	9.302 ± 0.18
x2 = 0.1671	5.6e-08 ± 5e-09	–	–
x2 = 0.1927	6e-08 ± 5e-09	–	–
x2 = 0.2134	–	1602.9 ± 1.3	9.358 ± 0.18
x2 = 0.2287	6.9e-08 ± 5e-09	–	–
x2 = 0.2682	8.3e-08 ± 5e-09	–	–
x2 = 0.3038	9.4e-08 ± 5e-09	–	–
x2 = 0.3111	–	1604.5 ± 1.2	9.487 ± 0.18
x2 = 0.3336	1.01e-07 ± 5e-09	–	–
x2 = 0.3866	–	1605.8 ± 1.2	9.654 ± 0.18
x2 = 0.4018	1.12e-07 ± 5e-09	–	–
x2 = 0.4305	1.16e-07 ± 5e-09	–	–
x2 = 0.4785	1.21e-07 ± 5e-09	–	–
x2 = 0.4965	1.22e-07 ± 5e-09	–	–
x2 = 0.5068	–	1607.7 ± 1.2	9.833 ± 0.19
x2 = 0.5172	1.22e-07 ± 5e-09	–	–
x2 = 0.543	1.23e-07 ± 5e-09	–	–
x2 = 0.5614	1.22e-07 ± 5e-09	–	–
x2 = 0.6039	–	1610 ± 1.2	9.963 ± 0.19
x2 = 0.607	1.2e-07 ± 5e-09	–	–
x2 = 0.623	1.19e-07 ± 5e-09	–	–
x2 = 0.6414	1.17e-07 ± 5e-09	–	–
x2 = 0.6694	1.15e-07 ± 5e-09	–	–
x2 = 0.6896	1.11e-07 ± 5e-09	–	–
x2 = 0.7046	–	1613.5 ± 1.1	10.04 ± 0.19
x2 = 0.7154	1.08e-07 ± 5e-09	–	–
x2 = 0.7437	1.02e-07 ± 5e-09	–	–
x2 = 0.7579	1e-07 ± 5e-09	–	–
x2 = 0.7775	9.6e-08 ± 5e-09	–	–
x2 = 0.8015	–	1617.8 ± 1.1	10.29 ± 0.19
x2 = 0.8278	8.7e-08 ± 5e-09	–	–
x2 = 0.8424	8.4e-08 ± 5e-09	–	–
x2 = 0.8495	–	1620.3 ± 1.1	10.5 ± 0.2
x2 = 0.8713	7.5e-08 ± 5e-09	–	–
x2 = 0.8846	7e-08 ± 5e-09	–	–
x2 = 0.8963	6.6e-08 ± 5e-09	–	–
x2 = 0.8974	–	1624.1 ± 1.1	10.75 ± 0.2
x2 = 0.9107	5.9e-08 ± 5e-09	–	–
x2 = 0.9233	–	1626 ± 1.1	10.83 ± 0.2
x2 = 0.9249	5.2e-08 ± 5e-09	–	–
x2 = 0.9349	4.4e-08 ± 5e-09	–	–
x2 = 0.9458	–	1627.7 ± 1.1	11.05 ± 0.2
x2 = 0.9544	3.6e-08 ± 5e-09	–	–
x2 = 0.961	2.7e-08 ± 5e-09	–	–
x2 = 0.9731	–	1631 ± 1.1	11.14 ± 0.21
x2 = 0.9747	1.8e-08 ± 5e-09	–	–
x2 = 0.9869	1.2e-08 ± 5e-09	–	–
x2 = 0.9976	4e-09 ± 5e-09	–	–

OCCCO [propan-1,3-diol] + O=C1CCCN1
Conditions	excess molar volume [m3/mol]	speed of sound [m/s]	viscosity [mPa·s]
x1 = 0.0149	7e-09 ± 5e-09	–	–
x1 = 0.0255	1e-08 ± 5e-09	–	–
x1 = 0.0365	–	1600.9 ± 1.4	9.37 ± 0.18
x1 = 0.0582	1.6e-08 ± 5e-09	–	–
x1 = 0.059	–	1601.4 ± 1.4	9.712 ± 0.19
x1 = 0.0669	1.8e-08 ± 5e-09	–	–
x1 = 0.0794	–	1602.1 ± 1.4	9.969 ± 0.19
x1 = 0.0811	1.9e-08 ± 5e-09	–	–
x1 = 0.0944	1.9e-08 ± 5e-09	–	–
x1 = 0.1005	–	1602.7 ± 1.4	10.29 ± 0.2
x1 = 0.1161	2.2e-08 ± 5e-09	–	–
x1 = 0.133	2.3e-08 ± 5e-09	–	–
x1 = 0.1451	–	1603.5 ± 1.4	–
x1 = 0.1452	–	–	10.9 ± 0.21
x1 = 0.1507	2.5e-08 ± 5e-09	–	–
x1 = 0.1752	2.6e-08 ± 5e-09	–	–
x1 = 0.1944	–	1604.5 ± 1.4	11.58 ± 0.22
x1 = 0.2346	2.7e-08 ± 5e-09	–	–
x1 = 0.2749	2.8e-08 ± 5e-09	–	–
x1 = 0.3004	–	1606.2 ± 1.4	–
x1 = 0.3005	–	–	13.29 ± 0.25
x1 = 0.3232	2.9e-08 ± 5e-09	–	–
x1 = 0.399	2.8e-08 ± 5e-09	–	–
x1 = 0.3994	–	1607.4 ± 1.4	15.04 ± 0.28
x1 = 0.4472	2.5e-08 ± 5e-09	–	–
x1 = 0.4784	2.5e-08 ± 5e-09	–	–
x1 = 0.4826	2.4e-08 ± 5e-09	–	–
x1 = 0.4902	–	1608.2 ± 1.4	16.76 ± 0.3
x1 = 0.4941	2.4e-08 ± 5e-09	–	–
x1 = 0.518	2.2e-08 ± 5e-09	–	–
x1 = 0.537	2.1e-08 ± 5e-09	–	–
x1 = 0.5552	2.1e-08 ± 5e-09	–	–
x1 = 0.5751	1.8e-08 ± 5e-09	–	–
x1 = 0.5828	–	1608.7 ± 1.4	18.38 ± 0.33
x1 = 0.6011	1.5e-08 ± 5e-09	–	–
x1 = 0.6281	1.3e-08 ± 5e-09	–	–
x1 = 0.6505	1e-08 ± 5e-09	–	–
x1 = 0.6707	9e-09 ± 5e-09	–	–
x1 = 0.6824	8e-09 ± 5e-09	–	–
x1 = 0.6833	–	1608.8 ± 1.4	20.23 ± 0.36
x1 = 0.7028	4e-09 ± 5e-09	–	–
x1 = 0.7232	1e-09 ± 5e-09	–	–
x1 = 0.746	-2e-09 ± 5e-09	–	–
x1 = 0.7719	-4e-09 ± 5e-09	–	–
x1 = 0.7889	–	1608.3 ± 1.4	22.45 ± 0.4
x1 = 0.791	-6e-09 ± 5e-09	–	–
x1 = 0.8126	-8e-09 ± 5e-09	–	–
x1 = 0.8237	-1e-08 ± 5e-09	–	–
x1 = 0.8265	–	1607.7 ± 1.4	23.24 ± 0.41
x1 = 0.8409	-1.3e-08 ± 5e-09	–	–
x1 = 0.853	-1.6e-08 ± 5e-09	–	–
x1 = 0.8712	-1.9e-08 ± 5e-09	–	–
x1 = 0.8823	-2.1e-08 ± 5e-09	–	–
x1 = 0.8909	–	1606.7 ± 1.4	24.43 ± 0.43
x1 = 0.8935	-2.2e-08 ± 5e-09	–	–
x1 = 0.9116	-2.4e-08 ± 5e-09	–	–
x1 = 0.9186	–	1606.4 ± 1.4	24.98 ± 0.44
x1 = 0.9269	-2.4e-08 ± 5e-09	–	–
x1 = 0.9355	-2.3e-08 ± 5e-09	–	–
x1 = 0.9422	–	1605.8 ± 1.4	25.52 ± 0.45
x1 = 0.9476	-2.2e-08 ± 5e-09	–	–
x1 = 0.9599	-2e-08 ± 5e-09	–	–
x1 = 0.9712	–	1605 ± 1.4	26.02 ± 0.46
x1 = 0.9803	-1.4e-08 ± 5e-09	–	–
x1 = 0.9887	-1.2e-08 ± 5e-09	–	–
x1 = 0.9978	-8e-09 ± 5e-09	–	–
